Measurements from patent US20090076029A1 (Palatin Technologies, Inc., priority 2007, published 2009).
Several values for one entry are separate records, joined by “and”; a condition that tells them apart may be missing. Equal entries are not always repeated. Where two headings read alike, the source gives them in different places.

Tests used:
hMC4-R [1] = system: T1, hMC4-R; experiment: Competitive inhibition assay using [I125]-NDP-α-MSH, hMC4-R membranes; format: binding, human; settings: for attenuation of binding of α-MSH and AgRP to MC4-R: both ligands (NDP-α-MSH and AgRP), summary
T1 construct: expressed in transfected cells; host or cells: HEK-293
Experimental: (§1) Competitive inhibition assay using [1125]-NDP-α-MSH. A competitive inhibition binding assay was conducted using membranes prepared from HEK-293 cells transfected to express hMC3-R, hMC4-R or hMC5-R, and from B-16 mouse melanoma cells (containing MC1-R) using 0.2 to 0.4 nM [I^125]-NDP-α-MSH (New England Nuclear) in 50 mM HEPES buffer containing 1 mM MgCl2, 2 mM CaCl2, and 5 mM KCl, at pH 7.2. In certain experiments, HEK-293 cells transfected to express hMC1-R were also employed. The assay tube also contained a chosen concentration of the test compound of this invention, typically a 1 μM concentration, for determining inhibition of the binding of [^1125]-NDP-α-MSH to its receptor. Non-specific binding was measured by inhibition of binding of [I^125]-NDP-α-MSH in the assay with the presence of 1 μM α-MSH.
(§2) The assay mixture was incubated for 90 minutes at room temperature, then filtered and the membranes washed three times with ice cold buffer. The filter was dried and counted in a gamma counter for remaining radioactivity bound to the membranes. 100% specific binding was defined as the difference in radioactivity (cpm) bound to cell membranes in the absence and presence of 1 μM α-MSH. The cpm obtained in presence of test compounds were normalized with respect to 100% specific binding to determine the percent inhibition of [125]-NDP-α-MSH binding. Each assay was conducted in triplicate and the actual mean values are described, with results less than 0% reported as 0%.

hMC4-R [2] = system: T1, hMC4-R; format: binding, human; settings: for Inhibition at 1 μM (AgRP) MC4-R: 1 μM compound
Experimental: Competitive binding assay using [I^125]-AgRP (83-132). Competitive binding studies using [I^125]-AgRP (83-132) were carried out on membranes isolated from cells expressing hMC4-R. The assay was performed in 96 well GF/B Millipore multiscreen filtration plates (MAFB NOB10) pre-coated with 0.5% bovine serum albumin (Fraction V). The assay mixture contained 25 mM HEPES buffer (pH 7.5) with 100 mM NaCl, 2 mM CaCl2, 2 mM MgCl2, 0.3 mM 1,10-phenanthroline, 0.5% bovine serum albumin, cell membranes, radioligand [I^125]-AgRP (83-132) (NEN), and increasing concentrations of compounds in a total volume of 200 μL. Binding was measured at radioligand concentrations of 0.2 nM. After incubating for 1 hour at 37° C., the reaction mixture was filtered and washed with an assay buffer containing 500 mM NaCl. The dried discs were punched out from the plate and counted on a gamma counter. Care was taken to limit the specific binding of the ligand to an amount not exceeding 10% of the counts added to the reaction mixture. Data were analyzed using the Prism Graph-Pad curve fitting software.

hMC4-R [3] = system: T1, hMC4-R; experiment: cAMP functional assay in HEK-293 cells expressing MC4-R (agonist, neutral antagonist/Schild); format: cell-based, human; settings: for intrinsic activity at MC4-R: NDP-α-MSH maximal stimulation = 1.0; for functional status at MC4-R: mostly at 1 μM
Experimental: General method for EC50 determination in functional activity assay. Functional evaluation of compounds at melanocortin receptors was performed by measuring the accumulation of intracellular cAMP in HEK-293 cells expressing hMC3-R, hMC4-R or hMC5-R, and in B-16 mouse melanoma cells expressing MC1-R. Cells suspended in Earle's Balanced Salt Solution containing 10 mM HEPES (pH 7.5), 5 mM MgCl2, 1 mM glutamine, 0.1% albumin and 0.6 mM 3-isobutyl-1-methyl-xanthine, a phosphodiesterase inhibitor, were plated in 96 well plates at a density of 0.5×10^5 cells per well. Cells were incubated with the test compounds in the presence or absence of α-MSH for 1 hour at 37° C. cAMP levels in the cell lysates were measured using an EIA kit (Amersham). Data analysis and EC50 values were determined using nonlinear regression analysis with Prism Graph-Pad software.
Functional status. The agonist/antagonist status with respect to MC1-R, MC-3R, MC4-R and MC5-R of certain compounds of the invention was determined.
Assay for agonist. Evaluation of the molecules to elicit a functional response in HEK-293 cells expressing MC4-R was accomplished by measuring the accumulation of intracellular cAMP following treatment. Confluent HEK-293 cells expressing MC4-R were detached by enzyme free cell suspension buffer. Cells were suspended in Earle's Balanced Salt Solution containing 10 mM HEPES (pH 7.5), 1 mM MgCl2, 1 mM glutamine, 0.5% albumin and 0.3 mM 3-isobutyl-1-methyl-xanthine (IBMX), a phosphodiesterase inhibitor. The cells were plated in 96 well plates at a density of 0.5×10^5 cells per well and pre-incubated for 30 minutes. The cells were then challenged with the test compounds dissolved in DMSO at a concentration range of 0.05-5000 nM in a total assay volume of 200 μL for 1 hour at 37° C. The concentration of DMSO was always held at 1% in the assay mixture. NDP-α-MSH was used as the reference agonist. At the end of the incubation period the cells were disrupted by the addition of 50 μL of lysis buffer from a cAMP EIA kit (Amersham). Complete rupture of the cells was obtained by pipetting the cells multiple times. cAMP levels in the cell lysates were measured after appropriate dilution using the EIA kit (Amersham) method. Data analysis and EC50 values were determined by using nonlinear regression analysis with Prism Graph-Pad software. […] FIG. 1 illustrates typical results, showing the stimulation of cAMP using the compound of Example 11 in HEK-293/MC4-R cells with comparison to NDP-α-MSH.
Assay for Neutral Antagonist. Compounds with a high affinity for binding to MC4-R membranes but with less potency in terms of cAMP accumulation (EC50>1000 nM) and low response ratio (<0.1) were analyzed for their ability to antagonize the stimulatory effect of the agonist NDP-α-MSH. These studies were carried out in HEK-293 cells expressing MC4-R. Cells were incubated with the compounds in the presence of the agonist NDP-α-MSH and the extent of antagonism was measured by the decrease in intracellular cAMP concentrations. Screening the compounds for antagonist activity was performed at a single concentration of NDP-α-MSH (1.0 nM) over a compound concentration range of 0.5-5000 nM.
Experimental details were similar to the analysis for agonistic activity described above. Briefly, cells were pre-incubated for 30 minutes with the test compounds at concentrations between 0.5 nM and 5000 nM. The cells were then stimulated with NDP-α-MSH at a concentration of 1 nM for 1 hour. For Schild's analysis, the interactions were studied using at least 3 concentrations of the compounds, separated by a log unit, over a full range of the agonist (0.005-5000 nM). cAMP levels were measured in the cell lysates after appropriate dilution. Nonlinear regression analysis with Prism Graph-Pad software was used for Schild analysis and to obtain EC50 values. pA2 values were derived from the Schild plot of the data.

hMC5-R = target: T2, hMC5-R; experiment: Competitive inhibition assay using [I125]-NDP-α-MSH, hMC5-R membranes; format: binding, human; settings: read-out: Ki (nM) (NDP-α-MSH) MC5-R
T2 construct: expressed in transfected cells; host or cells: HEK-293
Experimental: as §1, §2

hMC3-R = target: T3, hMC3-R; experiment: Competitive inhibition assay using [I125]-NDP-α-MSH, hMC3-R membranes; format: binding, human; settings: read-out: Ki (nM) (NDP-α-MSH) MC3-R
T3 construct: expressed in transfected cells; host or cells: HEK-293
Experimental: as §1, §2

MC1-R = target: T4, MC1-R; experiment: Competitive inhibition assay using [I125]-NDP-α-MSH, MC1-R membranes; format: binding, mouse; settings: for Inhibition at 1 μM (NDP-α-MSH) MC1-R: 1 μM compound
T4 construct: other: 1 μM compound
Experimental: as §1, §2

[4] = cAMP assay, read-out: EC50 (nM) at MC4-R
[5] = MC4-R membranes, Table 1, read-out: Ki (nM) I125-NPD-α-MSH
[6] = MC4-R membranes, Table 1, read-out: Ki (nM) I125-AgRP
[7] = MC4-R, Table 1 in μM, read-out: EC50

Molecule	attenuation of binding of α-MSH and AgRP to MC4-R (hMC4-R [1])	Inhibition at 1 μM (AgRP) MC4-R (hMC4-R [2])	Ki (hMC4-R [2]; read-out: Ki (nM) (AgRP) MC4-R)	functional status (pAg, Ag, Antag, Inactive) (hMC4-R [3]; MC4-R, Table 1)	EC50 (hMC4-R [3]; MC4-R, Table 1, read-out: EC50)	intrinsic activity at MC4-R (hMC4-R [3])	functional status at MC4-R (hMC4-R [3]; cAMP assay)	EC50 (hMC4-R [3]; [4])	Ki (hMC5-R)	Ki (hMC4-R [1]; [5])	Ki (hMC4-R [1]; read-out: Ki (nM) (NDP-α-MSH) MC4-R)	Ki (hMC4-R [2]; [6])	EC50 (hMC4-R [3]; [7])	Ki (hMC3-R)	EC50 (hMC4-R [3]; cAMP assay, printed in μm, read-out: EC50 at MC4-R)	Ki (MC1-R)	Inhibition at 1 μM (NDP-α-MSH) MC1-R (MC1-R)
C[C@@H]1CN(C(=O)[C@H](N)Cc2ccc(Cl)cc2)[C@@H](CCCNC(=N)N)CN1CCc1ccc2ccccc2c1 [Example 29, N-{3-[1-[2(R)-Amino-3-(4-CHLORO-phenyl)-propionyl]-5(R)-methyl-4-(2-naphthalen-2-yl-ethyl)-piperazin-2(S)-yl]-propyl}-guanidine]	attenuate the binding of both α-MSH and AgRP to MC4-R	97%	15 nM	Ag	252 nM	0.8	agonist (intrinsic activity of 0.7 (70%) or higher is classified as an agonist)	252 nM	–	–	–	–	–	–	–	–	–
2-naphthylacetyl-1-amino-1-cyclohexane-carbonyl-D-Phe(4-Cl)-Arg-Trp-NH2 [Example 25]	attenuate the binding of both α-MSH and AgRP to MC4-R	91%	50 nM	pAg (“pAg” means partial agonist)	–	0.2	partial agonist (intrinsic activity between 0.1 (10%) and 0.7 (70%) is classified as a partial agonist)	> 1000 nM	300 nM	40 nM	40 nM	50 nM	> 1000 nM	453 nM	–	–	–
NCCCC[C@H]1C(=O)N(CCc2ccc3ccccc3c2)CCN1C(=O)[C@@H](Cc1ccc(Cl)cc1Cl)NC(=O)c1ccc(Oc2ccccc2)cc1 [Example 22, N—[(R)-2-[(S)-2-(4-Amino-butyl)-4-(2-naphthalen-2-yl-ethyl)-3-oxo-piperazin-1-yl]-1-(2,4-dichloro-benzyl)-2-oxo-ethyl]-4-phenoxy-benzamide]	–	100%	0.9 nM	Inactive	> 1000 nM	–	inactive	–	–	–	–	0.9 nM	–	–	–	–	–
NH2—(CH2)6—C(═O)-Ser(Bzl)-D-Phe(4-Cl)-Arg-Trp-Ala-NH2 [Example 16]	–	–	–	–	–	–	functionally inactive	–	–	–	–	–	> 1000 nM	35 nM	> 1000 nM	142 nM	60%
NCCCC[C@H]1C(=O)N(CCc2ccc3ccccc3c2)CCN1C(=O)[C@@H](Cc1ccc(Cl)cc1Cl)NC(=O)[C@@H]1CC[C@H](c2ccccc2)N1 [Example 19, (2S,5R)-5-Phenyl-pyrrolidine-2-carboxylic acid [(R)-2-[(S)-2-(4-amino-butyl)-4-(2-naphthalen-2-yl-ethyl)-3-oxo-piperazin-1-yl]-1-(2,4-dichloro-benzyl)-2-oxo-ethyl]-amide]	attenuate the binding of both α-MSH and AgRP to MC4-R	95%	63 nM	pAg (“pAg” means partial agonist)	959 nM	0.19 and 0.2	–	959 nM	–	–	–	63 nM	–	855 nM	–	1370 nM	0%
Cc1cc(Cl)ccc1C[C@@H](N)C(=O)N1C[C@@H](C)N(CCc2ccc3ccccc3c2)C[C@@H]1CCCNC(=N)N [Example 27, N-{3-[1-[2(R)-Amino-3-(2-methyl, 4-chloro-phenyl)-propionyl]-5(R)-methyl-4-(2-naphthaen-2-yl-ethy)-piperazin-2(S)-yl]-propyl}-guanidine]	–	–	–	pAg (“pAg” means partial agonist)	214 nM	0.3	partial agonist (intrinsic activity between 0.1 (10%) and 0.7 (70%) is classified as a partial agonist)	214 nM	–	29 nM	–	–	–	–	–	–	–
N=C(N)NCCC[C@H]1C(=O)N2C(CC[C@@H]2COc2ccc3ccccc3c2)N1C(=O)[C@@H](Cc1ccc(Cl)cc1Cl)NC(=O)[C@@H]1CC[C@H](c2ccccc2)N1 (stereo partly drawn) [Example 20, (2S,5R)-5-Phenyl-pyrrolidine-2-carboxylic acid {(R)-1-(2,4-dichloro-benzyl)-2-[(2S,5R)-2-(3-guanidino-propyl)-5-(naphthalen-2-yloxymethyl)-3-oxo-hexahydro-pyrrolo[1,2-a]imidazol-1-yl]-2-oxo-ethyl}-amide]	–	99%	23 nM	Inactive	> 1000 nM	–	inactive	–	–	–	–	23 nM	–	312 nM	–	1040 nM	16%
